Data reported in patent US20230219978A1, “COMPOUND HAVING MACROCYCLIC STRUCTURE AND USE THEREOF” (SCINNOHUB PHARMACEUTICAL CO., LTD, priority 2020, published 2023).

Tests used:
Assay type in all cases: biochemical
[1] = target: T1, BTK C481S (Homo sapiens, UniProt Q06187, C481S); test: In vitro kinase activity assay (mobility shift assay), BTK C481S; settings: ATP 90 μM, reaction time 30 min
T1 construct: purchased Carna 08-547
Description: (§1) The IC50 (half inhibitory concentration) values of the compounds were used as an indicator to evaluate the inhibitory effect of the compound on RET wild-type, RET mutant, TRKa, SRC, BTK and/or mutated BTK kinase.
(§2) Using the method of Mobility shift assay, the compounds were tested for inhibitory activity against the following kinases: RET wild type, RET mutant, TRKa, SRC, BTK and/or mutated BTK. The initial concentration of the test compound was 1000 nM, 3-fold dilution, 10 concentrations, detected in a well for each concentration.
(§3) 20 mM hydroxyethylpiperazineethanesulfonic acid (Hepes) (pH 7.5) buffer, 10 mM MgCl2, 1 mM ethylene glycol bis(aminoethyl ether)tetraacetic acid (EGTA), 0.02% polyoxyethylene lauryl ether (Brij35), 0.02 mg/ml […] (BSA), 0.1 mM Na3VO4, 2 mM dithiothreitol (DTT), 1% DMSO.
(§4) The test compounds were dissolved in 100% dimethyl sulfoxide (DMSO) system, and prepared as 10 mM for use, and stored in a nitrogen cabinet away from light.
(§5) • (1) Preparing 1× kinase reaction buffer. • (2) Preparation of compound concentration gradient: the initial concentration of the compounds was 1000 nM, which was diluted as 100-fold final concentration of solution in 100% dimethyl sulfoxide (DMSO) in a 384-well plate. The compound was accurately 3-fold diluted with the kinase buffer solution, 10 concentrations in total, and the final concentration was 0.0508 nM. The 100-fold final concentration of solution in 100% dimethyl sulfoxide (DMSO) was obtained by dilution in 384 source plate. The liquid separator Echo 550 was used to transfer 250 nl of 100-fold final concentration of compound to the target 384 well plate. 250 nl of DMSO was added to the positive and negative control wells. • (3) 2.5-fold final concentration of kinase solution was prepared by the 1× kinase buffer. • (4) 10 4, of 2.5-fold final concentration of kinase solution was added to the compound well and the positive control well, respectively; 10 4, of 1× kinase buffer was added to the negative control well. • (5) After centrifuging at 1000 rpm for 30 second, the reaction plate was shaken and mixed, followed by incubation at room temperature for 10 min. • (6) a mixed solution of 25/15-fold final concentration of adenosine triphosphate (ATP) and kinase substrate was prepared by 1× kinase buffer. • (7) The mixed solution (15 μL) of 25/15-fold final concentration of adenosine triphosphate (ATP) and substrate was added to initiate the reaction. • (8) 384-well plate was centrifuged at 1000 rpm for 30 second, shaken and mixed well, and then incubated at room temperature for 30-240 min. • (9) After stopping the kinase reaction, the plate was centrifugated at 1000 rpm for 30 second, shaken and mixed well. • (10)The conversion rate was read with Caliper EZ Reader.
(§6) wherein Conversion%_sample is the conversion rate reading of the sample; Conversion%_min: the mean value of negative control wells, representing the conversion rate reading of wells without enzymes; Conversion%_max: the mean value of positive control wells, representing the conversion rate reading of wells without compound inhibition.
(§7) The log value of concentration was taken as the X axis, and the percentage inhibition rate was taken as the Y axis. Graphpad 6.0 analysis software was used to fit the dose-response curve, so as to obtain the IC50 value of each compound on the enzyme activity

[2] = target: T2, RET G810R (Homo sapiens, UniProt P07949, G810R); test: In vitro kinase activity assay (mobility shift assay), RET G810R; settings: ATP 201 μM, reaction time 4 h
T2 construct: purchased Proqinase 1724-0000-1
Summary of the method: (§8)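 Mobility-shift kinase assay in 20 mM Hepes pH 7.5, 10 mM MgCl2, EGTA, Brij35, BSA, Na3VO4, DTT, 1% DMSO. Compound was preincubated with kinase 10 min, then ATP and substrate were added for 30-240 min at room temperature. Ten 3-fold dilutions from 1000 nM final; IC50 from fitted conversion-rate inhibition.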

[3] = target: T3, BTK (Homo sapiens, UniProt Q06187); test: In vitro kinase activity assay (mobility shift assay), BTK; settings: ATP 71 μM, reaction time 30 min
T3 construct: purchased Carna 08-180
Description: as §1, §2, §3, §4, §5, §6, §7

[4] = target: T4, RET wt (Homo sapiens, UniProt P07949); test: In vitro kinase activity assay (mobility shift assay), RET wild type; settings: ATP 16 μM, reaction time 60 min
T4 construct: purchased Carna 08-159
Summary of the method: as §8

[5] = target: T5, RET V804M (Homo sapiens, UniProt P07949, V804M); test: In vitro kinase activity assay (mobility shift assay), RET V804M; settings: ATP 5.4 μM, reaction time 60 min
T5 construct: purchased signalchem R02-12GG
Summary of the method: as §8

[6] = target: T6, TRKa (Homo sapiens, UniProt P04629); test: In vitro kinase activity assay (mobility shift assay), TRKa; settings: ATP 47.8 μM, reaction time 30 min
T6 construct: purchased Carna 08-186
Description: as §1, §2, §3, §4, §5, §6, §7

[7] = target: T7, SRC (Homo sapiens, UniProt P12931); test: In vitro kinase activity assay (mobility shift assay), SRC; settings: ATP 19 μM, reaction time 30 min
T7 construct: purchased Carna 08-173
Description: as §1, §2, §3, §4, §5, §6, §7

T2 sequence (P07949 29-1114 G810R): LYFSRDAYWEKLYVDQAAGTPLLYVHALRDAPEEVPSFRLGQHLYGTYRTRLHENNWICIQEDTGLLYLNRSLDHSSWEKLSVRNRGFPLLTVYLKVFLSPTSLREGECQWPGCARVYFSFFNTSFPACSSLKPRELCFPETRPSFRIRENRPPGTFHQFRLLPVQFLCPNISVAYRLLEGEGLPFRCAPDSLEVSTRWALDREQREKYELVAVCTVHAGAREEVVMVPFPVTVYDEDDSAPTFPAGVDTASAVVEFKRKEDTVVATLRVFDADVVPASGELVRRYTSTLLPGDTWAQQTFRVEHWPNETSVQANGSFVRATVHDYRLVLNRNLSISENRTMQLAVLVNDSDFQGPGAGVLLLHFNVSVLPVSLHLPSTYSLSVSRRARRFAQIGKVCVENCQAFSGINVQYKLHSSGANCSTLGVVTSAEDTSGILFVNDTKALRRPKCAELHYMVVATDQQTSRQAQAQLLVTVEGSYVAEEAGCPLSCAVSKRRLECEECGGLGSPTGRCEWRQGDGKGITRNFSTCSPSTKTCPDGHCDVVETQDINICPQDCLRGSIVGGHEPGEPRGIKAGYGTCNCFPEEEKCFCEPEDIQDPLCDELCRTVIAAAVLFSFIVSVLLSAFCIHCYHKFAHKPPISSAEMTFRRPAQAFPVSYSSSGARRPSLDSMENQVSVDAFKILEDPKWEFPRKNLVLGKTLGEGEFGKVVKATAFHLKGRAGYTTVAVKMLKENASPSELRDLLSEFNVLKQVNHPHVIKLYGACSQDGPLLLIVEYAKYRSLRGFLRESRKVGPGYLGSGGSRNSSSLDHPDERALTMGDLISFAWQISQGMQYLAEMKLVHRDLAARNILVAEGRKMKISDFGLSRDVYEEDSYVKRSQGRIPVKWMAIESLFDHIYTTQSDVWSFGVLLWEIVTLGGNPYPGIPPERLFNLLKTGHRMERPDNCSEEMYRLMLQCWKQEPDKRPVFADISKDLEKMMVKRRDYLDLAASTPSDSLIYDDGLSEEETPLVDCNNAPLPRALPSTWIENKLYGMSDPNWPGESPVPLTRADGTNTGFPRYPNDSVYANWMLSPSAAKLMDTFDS
T4 sequence (P07949 29-1114): as the sequence (P07949 29-1114 G810R) above, with R782G counted along it
T1 sequence (Q06187 whole entry C481S): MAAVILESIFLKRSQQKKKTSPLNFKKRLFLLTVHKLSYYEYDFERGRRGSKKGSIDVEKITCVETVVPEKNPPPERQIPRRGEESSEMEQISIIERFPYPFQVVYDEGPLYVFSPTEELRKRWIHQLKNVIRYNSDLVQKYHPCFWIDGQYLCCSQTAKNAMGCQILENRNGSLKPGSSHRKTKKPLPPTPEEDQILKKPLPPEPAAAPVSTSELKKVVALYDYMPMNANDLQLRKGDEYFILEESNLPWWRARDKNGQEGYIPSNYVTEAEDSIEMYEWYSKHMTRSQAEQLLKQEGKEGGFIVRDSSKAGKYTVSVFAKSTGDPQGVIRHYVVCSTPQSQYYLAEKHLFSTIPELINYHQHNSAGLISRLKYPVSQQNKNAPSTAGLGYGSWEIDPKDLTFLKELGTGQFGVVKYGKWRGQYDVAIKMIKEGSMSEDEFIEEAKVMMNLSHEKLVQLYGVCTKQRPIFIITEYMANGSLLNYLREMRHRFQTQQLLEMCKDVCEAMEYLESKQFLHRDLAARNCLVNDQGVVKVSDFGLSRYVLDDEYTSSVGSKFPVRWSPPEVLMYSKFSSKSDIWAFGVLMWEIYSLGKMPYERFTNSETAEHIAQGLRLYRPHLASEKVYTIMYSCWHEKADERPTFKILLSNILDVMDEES
T6 sequence (P04629 33-796): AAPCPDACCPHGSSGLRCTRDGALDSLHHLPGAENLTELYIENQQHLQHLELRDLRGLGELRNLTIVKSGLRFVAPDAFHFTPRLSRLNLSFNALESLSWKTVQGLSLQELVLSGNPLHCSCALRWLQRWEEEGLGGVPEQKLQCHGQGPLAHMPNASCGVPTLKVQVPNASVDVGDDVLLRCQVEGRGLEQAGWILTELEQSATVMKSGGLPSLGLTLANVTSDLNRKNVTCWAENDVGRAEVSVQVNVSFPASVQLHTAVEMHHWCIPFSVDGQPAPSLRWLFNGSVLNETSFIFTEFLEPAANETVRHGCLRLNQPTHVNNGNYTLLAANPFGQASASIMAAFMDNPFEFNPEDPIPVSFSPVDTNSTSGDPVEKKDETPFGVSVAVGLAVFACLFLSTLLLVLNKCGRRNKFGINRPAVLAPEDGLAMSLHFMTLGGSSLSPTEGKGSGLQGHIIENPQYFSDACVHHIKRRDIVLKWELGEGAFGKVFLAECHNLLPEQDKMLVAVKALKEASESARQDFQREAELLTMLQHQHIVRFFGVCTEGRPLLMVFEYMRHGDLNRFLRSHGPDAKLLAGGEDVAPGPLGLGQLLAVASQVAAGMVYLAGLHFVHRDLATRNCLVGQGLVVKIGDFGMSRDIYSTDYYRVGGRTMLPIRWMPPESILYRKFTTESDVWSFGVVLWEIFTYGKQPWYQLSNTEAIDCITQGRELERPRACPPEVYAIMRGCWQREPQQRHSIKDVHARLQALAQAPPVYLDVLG
T3 sequence (Q06187 whole entry): as the sequence (Q06187 whole entry C481S) above, with S481C counted along it
T5 sequence (P07949 29-1114 V804M): as the sequence (P07949 29-1114 G810R) above, with V776M, R782G counted along it
T7 sequence (P12931 whole entry): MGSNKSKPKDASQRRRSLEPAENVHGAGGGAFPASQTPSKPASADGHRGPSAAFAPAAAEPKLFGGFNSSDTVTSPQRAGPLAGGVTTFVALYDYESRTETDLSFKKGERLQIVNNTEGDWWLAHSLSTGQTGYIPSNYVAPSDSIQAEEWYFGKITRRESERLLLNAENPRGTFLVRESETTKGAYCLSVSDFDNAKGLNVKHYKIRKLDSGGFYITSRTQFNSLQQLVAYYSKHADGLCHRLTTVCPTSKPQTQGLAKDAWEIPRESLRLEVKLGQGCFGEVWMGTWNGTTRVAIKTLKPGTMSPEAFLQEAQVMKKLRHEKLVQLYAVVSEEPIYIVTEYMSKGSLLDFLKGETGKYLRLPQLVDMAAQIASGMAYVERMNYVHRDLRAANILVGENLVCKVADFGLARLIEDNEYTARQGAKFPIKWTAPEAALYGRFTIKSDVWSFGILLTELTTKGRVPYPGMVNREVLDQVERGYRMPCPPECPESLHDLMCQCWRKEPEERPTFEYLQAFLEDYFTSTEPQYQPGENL

IC50 [1] [nM]	IC50 [2] [nM]	IC50 [3] [nM]	IC50 [4] [nM]	IC50 [5] [nM]	IC50 [6] [nM]	IC50 [7] [nM]	Structure (SMILES)
1.7	337	1.7	2.5	24	–	–	Nc1c(-c2ccccc2)c2nc3c(cnn13)C(=O)NC1CCCC1Oc1ncc(F)cc1CN2 (stereo not drawn) [Example 78, (6^3E, 6^4E)-6^7-amino-1^5-fluoro-6^6-phenyl-2-oxo-4,7-diaza-6(3,5)-pyrazolo[1,5-a]pyrimidin-1(2,3)-pyridin-3(1, 2)-cyclopentanacyclooctaphan-5-one]
–	–	176	465	–	–	105	C[C@H]1CNC(=O)c2cnn3cc(-c4ccc(N5CCOC5=O)cc4Cl)c(nc23)NCc2cc(F)cnc2O1 [Compound 40, (S, 1^3E, 1^4E)-1^6-(2-chloro-4-(2-oxaoxazolidin-3-yl)phenyl)-4^5-fluoro-6-methyl-5-oxa-2,8-diaza-1(5,3)-pyrazolo[1,5-a]pyrimidin-4(3,2)-pyridinacyclononaphan-9-one]
–	–	> 1000	128	–	–	61	CNc1c(-c2ccccc2)c2nc3c(cnn13)C(=O)NC[C@H](C)Oc1ncc(F)cc1CN2 [Example 64, (S, 1^3E, 1^4E)-4^5-fluoro-6-methyl-1^7-(methylamino)-1^6-phenyl-5-oxa-2,8-diaza-1(5,3)-pyrazolopyrimidin-4(3,2)-pyridinacyclononaphan-9-one]
–	22	33	1.2	3.5	65	2.8	C[C@H]1CNC(=O)c2cnn3c(N)c(-c4ccc(NC(=O)OCC5CC5)cc4)c(nc23)NCc2cc(F)cnc2O1 [Example 63, cyclopropylmethyl (4-((S, 1^3E, 1^4E)-1^7-amino-4^5-fluoro-6-methyl-9-oxo-5-oxo-2,8-diaza-1(5,3)-pyrazolo[1,5-a]pyrimidin-4(3,2)-pyridinacyclononaphan-1^6-yl)phenyl)carbamate]
> 1000	> 1000	> 1000	323	> 1000	–	–	Cc1nn2c(N)c(-c3ccccc3)c3nc2c1C(=O)NC[C@H](C)Oc1ncc(F)cc1CN3 [Example 74, (S, 1^3E, 1^4E)-1^7-amino-4^5-fluoro-1^2,6-dimethyl-1^6-phenyl-5-oxa-2,8-diaza-1(5,3)-pyrazolo[1,5-a]pyrimidinyl-4(3,2)-pyridinacyclononaphan-9-one]
13	–	25.9	8.2	–	> 10000	–	C[C@H]1CNC(=O)c2cnn3cc(-c4ccc(Cl)cc4)c(nc23)NCc2cc(F)cnc2O1 [Compound 9, (S, 1^3E, 1^4E)-1^6-(4-chlorophenyl)-4^5-fluoro-6-methyl-5-oxa-2,8-diaza-1(5,3)-pyrazolo[1,5-a]pyrimidina-4(3,2)-pyridinacyclononaphan-9-one]
398	–	296	20	–	> 10000	–	C[C@H]1CNC(=O)c2cnn3cc(-c4cnn(C)c4)c(nc23)NCc2cc(F)cnc2O1 [Compound 24]
> 1000	> 1000	> 1000	> 1000	> 1000	–	–	C[C@H]1CNC(=O)c2c(C#N)nn3c(N)c(-c4ccccc4)c(nc23)NCc2cc(F)cnc2O1 [Example 77, (S, 1^3E, 1^4E)-1^2-cyano-1^6-phenyl-1^7-amino-4^5-fluoro-6-methyl-5-oxa-2,8-diaza-1(5,3)-pyrazolo[1,5-a]pyrimidinyl-4(3,2)-pyridinacyclononaphan-9-one]
> 10000	–	> 10000	> 10000	–	> 10000	–	C[C@H]1CNC(=O)c2cnn3cc(N4CCOCC4)c(nc23)NCc2cc(F)cnc2O1 [Compound 17, (S, 1^3E, 1^4E)-4^5-fluoro-6-methyl-1^6-morpholino-5-oxa-2,8-diaza-1(5,3)-pyrazolo[1,5-a]pyrimidina-4(3,2)-pyridinacyclononaphan-9-one]

Second part, the molecule before the results:

Structure (SMILES)	IC50 [1] [nM]	IC50 [2] [nM]	IC50 [3] [nM]	IC50 [4] [nM]	IC50 [5] [nM]	IC50 [6] [nM]	IC50 [7] [nM]
C[C@H]1CNC(=O)c2cnn3c(N)c(-c4ccccc4F)c(nc23)NCc2cc(F)cnc2O1 [Example 66]	1.45	53.7	1.7	1.3	–	101	–
CC(C)OC(=O)Nc1ccc(-c2cn3ncc4c3nc2NCc2cc(F)cnc2O[C@@H](C)CNC4=O)cc1 [Compound 31, iso-propyl (4-((S, 1^3E, 1^4E)-4^5-fluoro-6-methyl-9-oxo-5-oxa-2,8-diaza-1(5,3)-pyrazolo[1,5-a]pyrimidin-4(3,2)-pyridinacyclononaphan-1^6-yl)phenyl)carbamate]	–	12.3	> 10000	4.05	–	> 10000	843
C[C@H]1CNC(=O)c2c(Br)nn3c(N)c(-c4ccccc4)c(nc23)NCc2cc(F)cnc2O1 [Example 76, (S, 1^3E, 1^4E)-1^2-bromo-1^6-phenyl-1^7-amino-4^5-fluoro-6-methyl-5-oxa-2,8-diaza-1(5,3)-pyrazolo[1,5-a]pyrimidinyl-4(3,2)-pyridinacyclononaphan-9-one]	> 1000	> 1000	> 1000	922	> 1000	–	–
Nc1c(-c2ccccc2)c2nc3c(cnn13)C(=O)N1CCCC1COc1ncc(F)cc1CN2 (stereo not drawn) [Example 79]	97	> 1000	45	104	> 1000	–	–
C[C@H]1CNC(=O)c2cnn3cc(-c4cccc(Cl)c4)c(nc23)NCc2cc(F)cnc2O1 [Compound 3, (S, 1^3E, 1^4E)-1^6-(3-chlorophenyl)-4^5-fluoro-6-methyl-5-oxa-2,8-diaza-1(5,3)-pyrazolo[1,5-a]pyrimidina-4(3,2)-pyridinacyclononaphan-9-one]	54.8	–	–	22	–	> 10000	–
C[C@H]1CNC(=O)c2cnn3cc(-c4ccccn4)c(nc23)NCc2cc(F)cnc2O1 [Compound 33]	–	–	> 10000	407	–	–	196
C[C@H]1CN(C)C(=O)c2cnn3c(N)c(-c4ccccc4)c(nc23)NCc2cc(F)cnc2O1 [Example 75, (S, 1^3E, 1^4E)-1^7-amino-4^5-fluoro-6,8-dimethyl-1^6-phenyl-5-oxo-2,8-diaza-1(5,3)-pyrazolo[1,5-a]pyrimidin-4(3,2)-pyridinacyclononaphan-9-one]	52	> 1000	22	20	311	–	–
COC(=O)Nc1ccc(-c2c3nc4c(cnn4c2N)C(=O)NC[C@H](C)Oc2ncc(F)cc2CN3)cc1 [Compound 49, methyl (4-((S, 1^3E, 1^4E)-1^7-amino-4^5-fluoro-6-methyl-9-oxo-5-oxa-2,8-diaza-1(5,3)-pyrazolino [1,5-a]pyrimidin-4(3,2)-pyridinacyclononaphan-1^6-yl)-phenyl)carbamate]	15	9.3	9.2	< 0.51	1.3	–	–
